# Oligonucleotides are given in HELM: sugar(base)linkage, 5' to 3'; d 2'-deoxyribose, r ribose, m 2'-O-methylribose, p phosphate. ss, as = sense and antisense strand
# Molecular target: Cacnb1 (rat)
# Assay: reporter assay of Huesken 2005
# Conditions: siRNA
# Also: test concentration or dose not given here.
row,Substance,normalised inhibition (eCFP-eYFP dual reporter)
1,RNA1{r(A)p.r(A)p.r(U)p.r(G)p.r(U)p.r(U)p.r(G)p.r(G)p.r(C)p.r(U)p.r(A)p.r(C)p.r(A)p.r(A)p.r(U)p.r(C)p.r(C)p.r(G)p.r(U)p.d(T)p.d(T)}|RNA2{r(A)p.r(C)p.r(G)p.r(G)p.r(A)p.r(U)p.r(U)p.r(G)p.r(U)p.r(A)p.r(G)p.r(C)p.r(C)p.r(A)p.r(A)p.r(C)p.r(A)p.r(U)p.r(U)p.d(T)p.d(G)}$$$RNA1{StrandType:ss}|RNA2{StrandType:as}$,90.9%
2,RNA1{r(A)p.r(C)p.r(A)p.r(C)p.r(G)p.r(G)p.r(A)p.r(G)p.r(C)p.r(C)p.r(A)p.r(G)p.r(G)p.r(A)p.r(G)p.r(A)p.r(C)p.r(U)p.r(C)p.d(T)p.d(T)}|RNA2{r(G)p.r(A)p.r(G)p.r(U)p.r(C)p.r(U)p.r(C)p.r(C)p.r(U)p.r(G)p.r(G)p.r(C)p.r(U)p.r(C)p.r(C)p.r(G)p.r(U)p.r(G)p.r(U)p.d(A)p.d(G)}$$$RNA1{StrandType:ss}|RNA2{StrandType:as}$,48.8%
3,RNA1{r(A)p.r(C)p.r(C)p.r(C)p.r(C)p.r(A)p.r(G)p.r(C)p.r(A)p.r(A)p.r(A)p.r(C)p.r(A)p.r(C)p.r(A)p.r(U)p.r(U)p.r(A)p.r(U)p.d(T)p.d(T)}|RNA2{r(A)p.r(U)p.r(A)p.r(A)p.r(U)p.r(G)p.r(U)p.r(G)p.r(U)p.r(U)p.r(U)p.r(G)p.r(C)p.r(U)p.r(G)p.r(G)p.r(G)p.r(G)p.r(U)p.d(T)p.d(G)}$$$RNA1{StrandType:ss}|RNA2{StrandType:as}$,63.4%
4,RNA1{r(A)p.r(G)p.r(A)p.r(A)p.r(U)p.r(G)p.r(A)p.r(G)p.r(C)p.r(U)p.r(G)p.r(G)p.r(A)p.r(G)p.r(G)p.r(G)p.r(C)p.r(U)p.r(G)p.d(T)p.d(T)}|RNA2{r(C)p.r(A)p.r(G)p.r(C)p.r(C)p.r(C)p.r(U)p.r(C)p.r(C)p.r(A)p.r(G)p.r(C)p.r(U)p.r(C)p.r(A)p.r(U)p.r(U)p.r(C)p.r(U)p.d(T)p.d(A)}$$$RNA1{StrandType:ss}|RNA2{StrandType:as}$,75.3%
5,RNA1{r(A)p.r(G)p.r(C)p.r(A)p.r(A)p.r(C)p.r(C)p.r(A)p.r(C)p.r(C)p.r(C)p.r(A)p.r(C)p.r(C)p.r(U)p.r(G)p.r(G)p.r(C)p.r(C)p.d(T)p.d(T)}|RNA2{r(G)p.r(G)p.r(C)p.r(C)p.r(A)p.r(G)p.r(G)p.r(U)p.r(G)p.r(G)p.r(G)p.r(U)p.r(G)p.r(G)p.r(U)p.r(U)p.r(G)p.r(C)p.r(U)p.d(G)p.d(G)}$$$RNA1{StrandType:ss}|RNA2{StrandType:as}$,31.6%
6,RNA1{r(A)p.r(G)p.r(C)p.r(C)p.r(G)p.r(G)p.r(C)p.r(C)p.r(G)p.r(U)p.r(C)p.r(A)p.r(G)p.r(A)p.r(C)p.r(U)p.r(C)p.r(C)p.r(G)p.d(T)p.d(T)}|RNA2{r(C)p.r(G)p.r(G)p.r(A)p.r(G)p.r(U)p.r(C)p.r(U)p.r(G)p.r(A)p.r(C)p.r(G)p.r(G)p.r(C)p.r(C)p.r(G)p.r(G)p.r(C)p.r(U)p.d(C)p.d(G)}$$$RNA1{StrandType:ss}|RNA2{StrandType:as}$,44.2%
7,RNA1{r(A)p.r(G)p.r(C)p.r(U)p.r(C)p.r(U)p.r(C)p.r(U)p.r(A)p.r(A)p.r(A)p.r(A)p.r(C)p.r(C)p.r(U)p.r(C)p.r(G)p.r(C)p.r(U)p.d(T)p.d(T)}|RNA2{r(A)p.r(G)p.r(C)p.r(G)p.r(A)p.r(G)p.r(G)p.r(U)p.r(U)p.r(U)p.r(U)p.r(A)p.r(G)p.r(A)p.r(G)p.r(A)p.r(G)p.r(C)p.r(U)p.d(G)p.d(G)}$$$RNA1{StrandType:ss}|RNA2{StrandType:as}$,56.1%
8,RNA1{r(C)p.r(A)p.r(G)p.r(G)p.r(A)p.r(G)p.r(A)p.r(U)p.r(G)p.r(A)p.r(G)p.r(G)p.r(U)p.r(G)p.r(C)p.r(C)p.r(A)p.r(G)p.r(U)p.d(T)p.d(T)}|RNA2{r(A)p.r(C)p.r(U)p.r(G)p.r(G)p.r(C)p.r(A)p.r(C)p.r(C)p.r(U)p.r(C)p.r(A)p.r(U)p.r(C)p.r(U)p.r(C)p.r(C)p.r(U)p.r(G)p.d(G)p.d(A)}$$$RNA1{StrandType:ss}|RNA2{StrandType:as}$,83.4%
9,RNA1{r(C)p.r(C)p.r(A)p.r(A)p.r(G)p.r(G)p.r(A)p.r(C)p.r(U)p.r(U)p.r(C)p.r(C)p.r(U)p.r(G)p.r(C)p.r(A)p.r(C)p.r(A)p.r(U)p.d(T)p.d(T)}|RNA2{r(A)p.r(U)p.r(G)p.r(U)p.r(G)p.r(C)p.r(A)p.r(G)p.r(G)p.r(A)p.r(A)p.r(G)p.r(U)p.r(C)p.r(C)p.r(U)p.r(U)p.r(G)p.r(G)p.d(G)p.d(C)}$$$RNA1{StrandType:ss}|RNA2{StrandType:as}$,63.2%
10,RNA1{r(C)p.r(C)p.r(A)p.r(C)p.r(C)p.r(C)p.r(A)p.r(A)p.r(U)p.r(C)p.r(C)p.r(G)p.r(C)p.r(U)p.r(G)p.r(C)p.r(U)p.r(G)p.r(A)p.d(T)p.d(T)}|RNA2{r(U)p.r(C)p.r(A)p.r(G)p.r(C)p.r(A)p.r(G)p.r(C)p.r(G)p.r(G)p.r(A)p.r(U)p.r(U)p.r(G)p.r(G)p.r(G)p.r(U)p.r(G)p.r(G)p.d(C)p.d(G)}$$$RNA1{StrandType:ss}|RNA2{StrandType:as}$,81.5%
11,RNA1{r(C)p.r(C)p.r(C)p.r(G)p.r(C)p.r(C)p.r(A)p.r(A)p.r(G)p.r(A)p.r(C)p.r(A)p.r(C)p.r(C)p.r(U)p.r(U)p.r(U)p.r(G)p.r(A)p.d(T)p.d(T)}|RNA2{r(U)p.r(C)p.r(A)p.r(A)p.r(A)p.r(G)p.r(G)p.r(U)p.r(G)p.r(U)p.r(C)p.r(U)p.r(U)p.r(G)p.r(G)p.r(C)p.r(G)p.r(G)p.r(G)p.d(A)p.d(T)}$$$RNA1{StrandType:ss}|RNA2{StrandType:as}$,57.6%
12,RNA1{r(C)p.r(C)p.r(U)p.r(G)p.r(G)p.r(A)p.r(C)p.r(G)p.r(A)p.r(G)p.r(A)p.r(A)p.r(C)p.r(C)p.r(A)p.r(A)p.r(U)p.r(U)p.r(G)p.d(T)p.d(T)}|RNA2{r(C)p.r(A)p.r(A)p.r(U)p.r(U)p.r(G)p.r(G)p.r(U)p.r(U)p.r(C)p.r(U)p.r(C)p.r(G)p.r(U)p.r(C)p.r(C)p.r(A)p.r(G)p.r(G)p.d(A)p.d(T)}$$$RNA1{StrandType:ss}|RNA2{StrandType:as}$,80.2%
13,RNA1{r(C)p.r(C)p.r(U)p.r(U)p.r(A)p.r(G)p.r(C)p.r(C)p.r(C)p.r(A)p.r(G)p.r(C)p.r(U)p.r(C)p.r(G)p.r(A)p.r(G)p.r(A)p.r(A)p.d(T)p.d(T)}|RNA2{r(U)p.r(U)p.r(C)p.r(U)p.r(C)p.r(G)p.r(A)p.r(G)p.r(C)p.r(U)p.r(G)p.r(G)p.r(G)p.r(C)p.r(U)p.r(A)p.r(A)p.r(G)p.r(G)p.d(C)p.d(C)}$$$RNA1{StrandType:ss}|RNA2{StrandType:as}$,76.8%
14,RNA1{r(C)p.r(G)p.r(A)p.r(A)p.r(A)p.r(C)p.r(U)p.r(C)p.r(U)p.r(G)p.r(U)p.r(C)p.r(U)p.r(A)p.r(C)p.r(A)p.r(C)p.r(G)p.r(G)p.d(T)p.d(T)}|RNA2{r(C)p.r(C)p.r(G)p.r(U)p.r(G)p.r(U)p.r(A)p.r(G)p.r(A)p.r(C)p.r(A)p.r(G)p.r(A)p.r(G)p.r(U)p.r(U)p.r(U)p.r(C)p.r(G)p.d(G)p.d(C)}$$$RNA1{StrandType:ss}|RNA2{StrandType:as}$,44%
15,RNA1{r(C)p.r(G)p.r(A)p.r(G)p.r(C)p.r(G)p.r(C)p.r(U)p.r(C)p.r(C)p.r(A)p.r(A)p.r(C)p.r(A)p.r(C)p.r(U)p.r(C)p.r(G)p.r(C)p.d(T)p.d(T)}|RNA2{r(G)p.r(C)p.r(G)p.r(A)p.r(G)p.r(U)p.r(G)p.r(U)p.r(U)p.r(G)p.r(G)p.r(A)p.r(G)p.r(C)p.r(G)p.r(C)p.r(U)p.r(C)p.r(G)p.d(A)p.d(T)}$$$RNA1{StrandType:ss}|RNA2{StrandType:as}$,15.2%
16,RNA1{r(C)p.r(G)p.r(U)p.r(C)p.r(A)p.r(G)p.r(A)p.r(C)p.r(U)p.r(C)p.r(C)p.r(G)p.r(A)p.r(C)p.r(G)p.r(U)p.r(G)p.r(U)p.r(C)p.d(T)p.d(T)}|RNA2{r(G)p.r(A)p.r(C)p.r(A)p.r(C)p.r(G)p.r(U)p.r(C)p.r(G)p.r(G)p.r(A)p.r(G)p.r(U)p.r(C)p.r(U)p.r(G)p.r(A)p.r(C)p.r(G)p.d(G)p.d(C)}$$$RNA1{StrandType:ss}|RNA2{StrandType:as}$,77%
17,RNA1{r(C)p.r(U)p.r(A)p.r(U)p.r(C)p.r(C)p.r(C)p.r(G)p.r(C)p.r(C)p.r(A)p.r(A)p.r(G)p.r(A)p.r(C)p.r(A)p.r(C)p.r(C)p.r(U)p.d(T)p.d(T)}|RNA2{r(A)p.r(G)p.r(G)p.r(U)p.r(G)p.r(U)p.r(C)p.r(U)p.r(U)p.r(G)p.r(G)p.r(C)p.r(G)p.r(G)p.r(G)p.r(A)p.r(U)p.r(A)p.r(G)p.d(C)p.d(G)}$$$RNA1{StrandType:ss}|RNA2{StrandType:as}$,70.7%
18,RNA1{r(C)p.r(U)p.r(G)p.r(A)p.r(G)p.r(G)p.r(U)p.r(A)p.r(C)p.r(A)p.r(G)p.r(A)p.r(G)p.r(U)p.r(G)p.r(A)p.r(A)p.r(A)p.r(U)p.d(T)p.d(T)}|RNA2{r(A)p.r(U)p.r(U)p.r(U)p.r(C)p.r(A)p.r(C)p.r(U)p.r(C)p.r(U)p.r(G)p.r(U)p.r(A)p.r(C)p.r(C)p.r(U)p.r(C)p.r(A)p.r(G)p.d(C)p.d(C)}$$$RNA1{StrandType:ss}|RNA2{StrandType:as}$,59.1%
19,RNA1{r(C)p.r(U)p.r(G)p.r(G)p.r(C)p.r(U)p.r(G)p.r(A)p.r(G)p.r(G)p.r(U)p.r(A)p.r(C)p.r(A)p.r(G)p.r(A)p.r(G)p.r(U)p.r(G)p.d(T)p.d(T)}|RNA2{r(C)p.r(A)p.r(C)p.r(U)p.r(C)p.r(U)p.r(G)p.r(U)p.r(A)p.r(C)p.r(C)p.r(U)p.r(C)p.r(A)p.r(G)p.r(C)p.r(C)p.r(A)p.r(G)p.d(G)p.d(C)}$$$RNA1{StrandType:ss}|RNA2{StrandType:as}$,34.8%
20,RNA1{r(C)p.r(U)p.r(G)p.r(G)p.r(U)p.r(G)p.r(G)p.r(A)p.r(U)p.r(C)p.r(G)p.r(G)p.r(G)p.r(A)p.r(G)p.r(G)p.r(C)p.r(U)p.r(G)p.d(T)p.d(T)}|RNA2{r(C)p.r(A)p.r(G)p.r(C)p.r(C)p.r(U)p.r(C)p.r(C)p.r(C)p.r(G)p.r(A)p.r(U)p.r(C)p.r(C)p.r(A)p.r(C)p.r(C)p.r(A)p.r(G)p.d(T)p.d(C)}$$$RNA1{StrandType:ss}|RNA2{StrandType:as}$,40.7%

# From the OligoGym collection
